According to ChEMBL document CHEMBL5625248, “Identification of unique indolylcyanoethylenyl sulfonylanilines as novel structural scaffolds of potential antibacterial agents” (Eur J Med Chem, 2023):
In brackets after ≈: the same amount, converted by molar mass.

What was measured:
Format in all cases: functional
Staphylococcus aureus [1] = experiment: Antibacterial activity against methicilin-resistant Staphylococcus aureus N315 assessed as inhibition of bacterial growth incubated for 18 hrs by two fold broth microdilution assay
Escherichia coli [2] = experiment: Antibacterial activity against Escherichia coli ATCC 25922 assessed as inhibition of bacterial growth incubated for 18 hrs by two fold broth microdilution assay
Klebsiella pneumoniae = experiment: Antibacterial activity against Klebsiella pneumoniae assessed as inhibition of bacterial growth incubated for 18 hrs by two fold broth microdilution assay
Staphylococcus aureus [3] = experiment: Antibacterial activity against Staphylococcus aureus ATCC 25923 assessed as inhibition of bacterial growth incubated for 18 hrs by two fold broth microdilution assay
Staphylococcus aureus [4] = experiment: Antibacterial activity against Staphylococcus aureus assessed as inhibition of bacterial growth incubated for 18 hrs by two fold broth microdilution assay
Acinetobacter baumannii = experiment: Antibacterial activity against Acinetobacter baumannii assessed as inhibition of bacterial growth incubated for 18 hrs by two fold broth microdilution assay
Pseudomonas aeruginosa [5] = experiment: Antibacterial activity against Pseudomonas aeruginosa ATCC 27853 assessed as inhibition of bacterial growth incubated for 18 hrs by two fold broth microdilution assay
Staphylococcus aureus [6] = experiment: Antibacterial activity against Staphylococcus aureus ATCC 29213 assessed as inhibition of bacterial growth incubated for 18 hrs by two fold broth microdilution assay
Enterococcus faecalis = experiment: Antibacterial activity against Enterococcus faecalis assessed as inhibition of bacterial growth incubated for 18 hrs by two fold broth microdilution assay
Escherichia coli [7] = experiment: Antibacterial activity against Escherichia coli assessed as inhibition of bacterial growth incubated for 18 hrs by two fold broth microdilution assay
Pseudomonas aeruginosa [8] = experiment: Antibacterial activity against Pseudomonas aeruginosa assessed as inhibition of bacterial growth incubated for 18 hrs by two fold broth microdilution assay

SMILES	MIC (Staphylococcus aureus [1]) [µg/mL]	MIC (Escherichia coli [2]) [µg/mL]	MIC (Klebsiella pneumoniae) [µg/mL]	MIC (Staphylococcus aureus [3]) [µg/mL]	MIC (Staphylococcus aureus [4]) [µg/mL]	MIC (Acinetobacter baumannii) [µg/mL]	MIC (Pseudomonas aeruginosa [5]) [µg/mL]	MIC (Staphylococcus aureus [6]) [µg/mL]	MIC (Enterococcus faecalis) [µg/mL]	MIC (Escherichia coli [7]) [µg/mL]	MIC (Pseudomonas aeruginosa [8]) [µg/mL]
N#C/C(=C\c1cn(Cc2cccc(Cl)c2)c2ccccc12)S(=O)(=O)c1ccc(N)cc1	128 (≈ 286 µM)	32 (≈ 71.4 µM)	256 (≈ 571 µM)	64 (≈ 143 µM)	128 (≈ 286 µM)	32 (≈ 71.4 µM)	64 (≈ 143 µM)	32 (≈ 71.4 µM)	128 (≈ 286 µM)	256 (≈ 571 µM)	64 (≈ 143 µM)
CC(=O)Nc1ccc(S(=O)(=O)/C(C#N)=C/c2cn(CC3CCCCC3)c3ccccc23)cc1	64 (≈ 139 µM)	32 (≈ 69.3 µM)	128 (≈ 277 µM)	64 (≈ 139 µM)	32 (≈ 69.3 µM)	32 (≈ 69.3 µM)	2 (≈ 4.33 µM)	64 (≈ 139 µM)	32 (≈ 69.3 µM)	256 (≈ 555 µM)	64 (≈ 139 µM)
N#C/C(=C\c1cn(Cc2ccccc2Cl)c2ccccc12)S(=O)(=O)c1ccc(N)cc1	256 (≈ 571 µM)	64 (≈ 143 µM)	1 (≈ 2.23 µM)	1 (≈ 2.23 µM)	1 (≈ 2.23 µM)	16 (≈ 35.7 µM)	2 (≈ 4.46 µM)	2 (≈ 4.46 µM)	16 (≈ 35.7 µM)	32 (≈ 71.4 µM)	16 (≈ 35.7 µM)
